From US20190336489A1, “NON PEPTIDE HETEROBIVALENT MOLECULES FOR TREATING INFLAMMATORY DISEASES” (GLAXOSMITHKLINE INTELLECTUAL PROPERTY DEVELOPMENT LIMITED, priority 2017, published 2019)
Marks after values point to notes of the source that are not given here.

Target: T1, CCR2 (Homo sapiens, UniProt P41597)
T1 construct: expressed in transfected cells; host or cells: CHOK1
Experiment: Antibody Dependent Cellular Cytotoxicity (ADCC) reporter assay, CCR2 target cells
Type: cell-based
Details: CHOK1 cells overexpressing CCR2; for EC50: Jurkat FcgRIIIa NFAT-luciferase reporter cells, EC50 class, read-out: ADCC potency; for ADCC efficacy: maximum signal:background (S/B)
Description: The compounds described herein have been characterized in an ADCC reporter assay (see Section 1.2 ADCC reporter for protocol). […] Furthermore, the assay also confirms that this formed complex can engage and activate the Fc receptors on immune cells. Lastly, the assay provides both potency (EC50) and efficacy (signal to background ratio) for each compound in a dose dependant manner.
This assay has four components • 1) Heterobivalent Compound consisting of a targeting ligand and a hapten connected by a linker (ranging from 10 uM-1 pM) • 2) A hapten antibody with functional Fc domain (typical concentrations are 0.01 ug/mL-200 ug/mL) • 3) Target cells—CHOK1 cells engineered to overexpress either CCR1, CCR2, or CCR3, or CEMNKR cells engineered to overexpress CCR5 (typically 1000-20,000 cells per well) • 4) Reporter cells—Jurkat cells engineered to express FcgRIIIa (ADCC reporter assay) and with a reporter gene (luciferase) under the control of the NFAT promoter (typically 3000-75,000 cells per well)
Reagents are combined in final volume of 20 uL in 384-well tissue culture treated plated.
All components are incubated together for ˜12-18 hours. Add BioGlo Detection reagent (from Promega) to lyse the cells and provide substrate for the luciferase reporter protein. Signal is measured on a microplate reader capable of measuring luminescence. Signal:Background is calculated by dividing the signal of a test well by the signal obtained when no compound is included in the assay. EC50 calculations were done using Graphpad Prism Software, specifically a nonlinear regression curve fit (Y=Bottom+(Top−Bottom)/(1+10^((Log EC50−X)*HillSlope)))

T1 sequence (P41597 whole entry, species assumed): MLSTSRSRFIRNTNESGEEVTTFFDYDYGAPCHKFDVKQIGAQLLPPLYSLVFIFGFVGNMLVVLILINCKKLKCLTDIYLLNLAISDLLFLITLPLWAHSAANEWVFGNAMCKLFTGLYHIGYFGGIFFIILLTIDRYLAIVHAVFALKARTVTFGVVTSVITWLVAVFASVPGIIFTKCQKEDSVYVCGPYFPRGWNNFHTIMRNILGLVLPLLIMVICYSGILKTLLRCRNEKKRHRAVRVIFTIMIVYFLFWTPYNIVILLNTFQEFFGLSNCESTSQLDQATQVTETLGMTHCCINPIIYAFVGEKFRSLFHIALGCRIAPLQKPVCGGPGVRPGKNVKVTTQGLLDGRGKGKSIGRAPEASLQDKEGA

SMILES	EC50 [µM]	ADCC efficacy
Cc1ccc2c(c1)NC[C@]21CCN(C[C@@H](O)C2CCN(c3ncc(-c4cccc(C(=O)NCCOCCOCCOCCOCCOCCOCCOCCOCCOCCNc5ccc([N+](=O)[O-])cc5[N+](=O)[O-])c4)o3)CC2)C[C@H]1C [Compound 11, 3-(2-(4-((S)-2-((3S,3′S)-3′,6-Dimethylspiro[indoline-3,4′-piperidin]-1′-yl)-1-hydroxyethyl)piperidin-1-yl)oxazol-5-yl)-N-(29-((2,4-dinitrophenyl)amino)-3,6,9,12,15,18,21,24,27-nonaoxanonacosyl)benzamide]	0.01 to 0.1	+++^e (Maximum Signal:Background > 10 = +++)
Cc1ccc2c(c1)NC[C@]21CCN(C[C@@H](O)C2CCN(C(=O)c3cc4cc(Oc5ccc(C(=O)NCCOCCOCCOCCOCCOCCOCCOCCOCCOCCNc6ccc([N+](=O)[O-])cc6[N+](=O)[O-])cc5)ccc4[nH]3)CC2)C[C@H]1C [Compound 10, 4-((2-(4-((S)-2-((3S,3′S)-3′,6-Dimethylspiro[indoline-3,4′-piperidin]-1′-yl)-1-hydroxyethyl)piperidine-1-carbonyl)-1H-indol-5-yl)oxy)-N-(29-((2,4-dinitrophenyl)amino)-3,6,9,12,15,18,21,24,27-nonaoxanonacosyl)benzamide]	0.001 to 0.01	+++^e (Maximum Signal:Background > 10 = +++)
CC(C)[C@]1(C(=O)N2CCc3nc(CCCCOc4cccc(C(=O)NCCOCCOCCOCCOCCOCCOCCOCCOCCOCCNc5ccc([N+](=O)[O-])cc5[N+](=O)[O-])c4)c(C(F)(F)F)cc3C2)CC[C@@H](NC2CCOCC2)C1 [Compound 7, N-(29-((2,4-dinitrophenyl)amino)-3,6,9,12,15,18,21,24,27-nonaoxanonacosyl)-3-(4-(6-((1S,3R)-1-isopropyl-3-((tetrahydro-2H-pyran-4-yl)amino)cyclopentanecarbonyl)-3-(trifluoromethyl)-5,6,7,8-tetrahydro-1,6-naphthyridin-2-yl)butoxy)benzamide]	< 0.001	+++^e (Maximum Signal:Background > 10 = +++)
Cc1ccc2c(c1)NC[C@]21CCN(C[C@@H](O)C2CCN(C(=O)c3cc4ccc(Oc5ccc(C(=O)N6CCN(CCCNc7ccc([N+](=O)[O-])cc7[N+](=O)[O-])CC6)cc5)cc4[nH]3)CC2)C[C@H]1C [Compound 15, (4-((S)-2-((3S,3′S)-3′,6-Dimethylspiro[indoline-3,4′-piperidin]-1′-yl)-1-hydroxyethyl)piperidin-1-yl)(6-(4-(4-(3-((2,4-dinitrophenyl)amino)propyl)piperazine-1-carbonyl)phenoxy)-1H-indol-2-yl)methanone]	0.001 to 0.01	+++^e (Maximum Signal:Background > 10 = +++)
CC(C)[C@]1(C(=O)N2CCc3nc(CCCCOc4ccc(C(=O)NCCOCCOCCOCCOCCOCCOCCOCCOCCOCCNc5ccc([N+](=O)[O-])cc5[N+](=O)[O-])cc4)c(C(F)(F)F)cc3C2)CC[C@@H](NC2CCOCC2)C1 [Compound 6, N-(29-((2,4-dinitrophenyl)amino)-3,6,9,12,15,18,21,24,27-nonaoxanonacosyl)-4-(4-(6-((1S,3R)-1-isopropyl-3-((tetrahydro-2H-pyran-4-yl)amino)cyclopentanecarbonyl)-3-(trifluoromethyl)-5,6,7,8-tetrahydro-1,6-naphthyridin-2-yl)butoxy)benzamide]	< 0.001	+++^e (Maximum Signal:Background > 10 = +++)
Cc1ccc2c(c1)NC[C@]21CCN(C[C@@H](O)C2CCN(C(=O)c3cc4cc(OCCOCCOCCOCCNC(=O)CCC(=O)NCCOCCOCCOCCNc5ccc([N+](=O)[O-])cc5[N+](=O)[O-])ccc4[nH]3)CC2)C[C@H]1C [Compound 8, N1-(2-(2-(2-(2-((2-(4-((S)-2-((3S,3′S)-3′,6-Dimethylspiro[indoline-3,4′-piperidin]-1′-yl)-1-hydroxyethyl)piperidine-1-carbonyl)-1H-indol-5-yl)oxy)ethoxy)ethoxy)ethoxy)ethyl)-N4-(2-(2-(2-(2-((2,4-dinitrophenyl)amino)ethoxy)ethoxy)ethoxy)ethyl)succinamide]	0.01 to 0.1	+++^e (Maximum Signal:Background > 10 = +++)
